Source: publication PMC11801377, “A uniquely efficacious type of CFTR corrector with complementary mode of action” (Science Advances, 2024)

Molecular target: T1, G551D-CFTR (Homo sapiens, UniProt P13569, G551D)
T1 construct: expressed in transfected cells; host or cells: T-REx HEK293, also transduced with halide-sensitive YFP
Experiment: YFP quenching copotentiation assay in HEK-G551D-CFTR cells (acute treatment)
Assay type: cell-based
Settings: HEK293 cells, 10 min incubation
Source text: The human CFTR expressing HEK cell pools with the mutations described below were generated by integrase-mediated homologous recombination of the CFTR sequence into the T-REx HEK293 background (Thermo Fisher Scientific). This expression system allows the tetracycline-inducible expression of genes of interest from one defined insertion site. Parental T-REx-HEK293 cells were cultivated in growth medium: Dulbecco’s modified Eagle’s medium + GlutaMAX-I (#31966, Life Technologies), 10% dialyzed FBS (Gibco, #26400), penicillin (100 U/ml), streptomycin (100 μg/ml), hygromycin B (0.1 mg/ml; Life Technologies), blasticidin (5 μg/ml; Invitrogen, #R210-01), and 0.1 mM nonessential amino acid solution (Invitrogen, #11140-035). Recombinant T-REx-HEK-CFTR cells were generated by lipofectamine transfection (Life Technologies) of plasmids containing mutated versions of CFTR (RefSeq NM_000492) and then cultivated in selection medium [growth medium containing Geneticin (1 mg/ml) (Invitrogen, #10131-027) instead of hygromycin]. The plasmid constructs were synthetized by GENEART (Thermo Fisher Scientific) and designed with the WT CFTR intron 5 to 6 (880 nucleotides) to prevent leaky expression issues during the cloning process in bacteria. […]

T1 sequence (P13569 whole entry G551D): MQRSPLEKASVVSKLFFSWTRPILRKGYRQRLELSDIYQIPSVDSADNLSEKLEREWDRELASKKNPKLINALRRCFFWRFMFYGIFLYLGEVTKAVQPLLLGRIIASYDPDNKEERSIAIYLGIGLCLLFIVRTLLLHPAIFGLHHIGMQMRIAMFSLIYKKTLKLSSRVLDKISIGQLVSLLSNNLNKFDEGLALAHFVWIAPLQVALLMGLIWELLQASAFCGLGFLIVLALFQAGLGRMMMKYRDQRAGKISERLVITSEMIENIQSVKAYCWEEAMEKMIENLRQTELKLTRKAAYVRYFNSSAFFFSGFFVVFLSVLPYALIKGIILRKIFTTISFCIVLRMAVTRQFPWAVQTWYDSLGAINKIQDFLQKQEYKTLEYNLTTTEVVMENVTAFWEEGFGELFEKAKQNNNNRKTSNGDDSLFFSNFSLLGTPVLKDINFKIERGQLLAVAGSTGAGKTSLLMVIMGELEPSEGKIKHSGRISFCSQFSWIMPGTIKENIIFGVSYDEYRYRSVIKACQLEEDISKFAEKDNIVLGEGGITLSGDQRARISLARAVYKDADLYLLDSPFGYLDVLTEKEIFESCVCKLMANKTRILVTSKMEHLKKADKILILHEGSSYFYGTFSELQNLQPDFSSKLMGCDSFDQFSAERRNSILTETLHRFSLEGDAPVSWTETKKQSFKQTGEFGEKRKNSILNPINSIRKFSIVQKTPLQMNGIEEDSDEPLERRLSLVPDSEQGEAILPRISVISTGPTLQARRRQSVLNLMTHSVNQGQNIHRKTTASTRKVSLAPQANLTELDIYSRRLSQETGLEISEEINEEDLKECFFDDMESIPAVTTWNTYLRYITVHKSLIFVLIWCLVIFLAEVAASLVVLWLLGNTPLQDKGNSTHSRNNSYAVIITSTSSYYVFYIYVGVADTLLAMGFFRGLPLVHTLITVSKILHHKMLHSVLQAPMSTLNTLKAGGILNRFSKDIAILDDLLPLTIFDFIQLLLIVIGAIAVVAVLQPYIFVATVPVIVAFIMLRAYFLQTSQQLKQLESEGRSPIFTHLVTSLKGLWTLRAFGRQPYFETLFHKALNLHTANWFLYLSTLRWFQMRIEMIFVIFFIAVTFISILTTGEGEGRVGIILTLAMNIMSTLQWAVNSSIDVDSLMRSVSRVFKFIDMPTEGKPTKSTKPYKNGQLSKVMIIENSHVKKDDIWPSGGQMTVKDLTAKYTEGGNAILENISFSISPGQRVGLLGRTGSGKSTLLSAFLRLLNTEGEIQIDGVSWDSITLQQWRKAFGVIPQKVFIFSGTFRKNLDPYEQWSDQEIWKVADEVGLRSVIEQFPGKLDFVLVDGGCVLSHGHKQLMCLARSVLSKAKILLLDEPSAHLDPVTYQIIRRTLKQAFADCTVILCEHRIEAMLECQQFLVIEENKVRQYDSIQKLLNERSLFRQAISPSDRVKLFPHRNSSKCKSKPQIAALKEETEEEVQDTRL

Row | SMILES | acute effect on IVA activity at G551D-CFTR
1 | Cc1nn(C)cc1S(=O)(=O)NC(=O)c1ccc(-n2ccc(OCC(C)(C)C(F)(F)F)n2)nc1N1C[C@@H](C)CC1(C)C [ELX, elexacaftor] | copotentiation of IVA activity
2 | COc1cc(CCNC(=O)C2CC(=O)N(C)C(CC(C)C)C(=O)N3CCCCC3C(=O)NC(Cc3ccccc3)COc3ccc4ncc(F)cc4c3C(=O)N2)on1 (centres unmarked) [IDOR-3] | copotentiation of IVA activity
